Among the data in patent US10214519B2, “Phosphatidylinositol 3-kinase inhibitors” (Gilead Sciences, Inc., priority 2016, dated 2019) are IC50 values, retold here.

This test deals with PI3Kβ (Homo sapiens (Human), UniProt P42338). Description: PI3K isoform TR-FRET enzymatic assay (PI3Kβ). It is filed as biochemical. The note with it: 2× Km ATP, 30 minutes at 25° C. The method, boiled down: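 IC50 came from four-parameter dose-response fits, normalized between DMSO and 1 μM wortmannin controls. The read-out was TR-FRET (615/665 nm) of PIP3 displacing fluorescent PIP3 from Europium GRP-1 after 10 mM EDTA termination. Compounds were incubated with purified heterodimeric PI3Kβ for 30 min at 25° C.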

pIC50: −log10 of the molar value.

Chain of PI3Kβ (P42338 whole entry, canonical isoform): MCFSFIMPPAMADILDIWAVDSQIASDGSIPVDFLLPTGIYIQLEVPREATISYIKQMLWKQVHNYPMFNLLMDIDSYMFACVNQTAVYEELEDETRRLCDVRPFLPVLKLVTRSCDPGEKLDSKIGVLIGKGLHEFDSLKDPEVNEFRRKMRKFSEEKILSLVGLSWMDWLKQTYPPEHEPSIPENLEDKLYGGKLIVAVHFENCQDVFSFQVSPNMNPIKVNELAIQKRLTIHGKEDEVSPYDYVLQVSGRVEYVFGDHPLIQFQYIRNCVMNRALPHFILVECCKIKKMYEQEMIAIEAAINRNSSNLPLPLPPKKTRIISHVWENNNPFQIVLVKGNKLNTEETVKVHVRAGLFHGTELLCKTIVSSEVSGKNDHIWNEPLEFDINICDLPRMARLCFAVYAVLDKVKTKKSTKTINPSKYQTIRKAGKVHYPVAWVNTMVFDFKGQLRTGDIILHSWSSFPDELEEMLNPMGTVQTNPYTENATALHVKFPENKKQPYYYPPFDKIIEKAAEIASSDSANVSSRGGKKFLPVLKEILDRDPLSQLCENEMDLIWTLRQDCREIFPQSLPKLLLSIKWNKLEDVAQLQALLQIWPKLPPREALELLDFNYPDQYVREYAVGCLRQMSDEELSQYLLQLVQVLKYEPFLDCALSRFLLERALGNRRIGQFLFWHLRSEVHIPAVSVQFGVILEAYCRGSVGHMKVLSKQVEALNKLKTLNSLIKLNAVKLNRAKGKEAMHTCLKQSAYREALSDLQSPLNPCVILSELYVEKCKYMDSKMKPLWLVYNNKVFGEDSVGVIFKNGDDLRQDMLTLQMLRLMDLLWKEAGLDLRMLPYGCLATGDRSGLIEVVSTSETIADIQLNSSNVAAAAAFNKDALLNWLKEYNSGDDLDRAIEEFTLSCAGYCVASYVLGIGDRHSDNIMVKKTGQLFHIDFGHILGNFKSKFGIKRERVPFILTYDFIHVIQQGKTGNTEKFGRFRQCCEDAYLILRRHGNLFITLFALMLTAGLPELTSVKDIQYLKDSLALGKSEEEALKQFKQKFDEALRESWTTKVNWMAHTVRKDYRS
Chain of PI3Kβ (P27986 whole entry partner, canonical isoform): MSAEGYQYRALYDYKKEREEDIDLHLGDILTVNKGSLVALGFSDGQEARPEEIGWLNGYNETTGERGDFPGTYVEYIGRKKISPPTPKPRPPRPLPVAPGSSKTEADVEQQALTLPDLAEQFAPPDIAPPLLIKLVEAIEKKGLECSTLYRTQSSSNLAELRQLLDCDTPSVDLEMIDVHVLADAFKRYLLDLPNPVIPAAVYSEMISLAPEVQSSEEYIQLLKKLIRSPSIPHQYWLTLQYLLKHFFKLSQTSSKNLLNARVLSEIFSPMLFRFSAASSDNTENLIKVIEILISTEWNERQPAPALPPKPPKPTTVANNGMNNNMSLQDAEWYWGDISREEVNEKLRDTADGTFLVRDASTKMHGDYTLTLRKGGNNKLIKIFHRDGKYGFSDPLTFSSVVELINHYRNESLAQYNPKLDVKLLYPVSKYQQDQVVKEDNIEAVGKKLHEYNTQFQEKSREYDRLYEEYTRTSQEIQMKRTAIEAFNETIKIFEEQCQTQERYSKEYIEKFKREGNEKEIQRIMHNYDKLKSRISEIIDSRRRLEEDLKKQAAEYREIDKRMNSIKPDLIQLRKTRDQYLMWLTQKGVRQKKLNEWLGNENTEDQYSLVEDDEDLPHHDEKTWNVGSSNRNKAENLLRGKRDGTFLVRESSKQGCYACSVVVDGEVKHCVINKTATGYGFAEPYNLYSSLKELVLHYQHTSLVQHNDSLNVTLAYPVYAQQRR

`Cc1nc2c(-c3nnc[nH]3)cc(N3CCOCC3)cc2n1-c1ccnc2c(F)c(F)ccc12` [Example 142, 4-[3-(7,8-difluoroquinolin-4-yl)-2-methyl-7-(4H-1,2,4-triazol-3-yl)benzimidazol-5-yl]morpholine] showed a negative-log IC50 (pIC50) of 7.82.

For the compound `Cc1nnc(-c2cc(N3CCOCC3)cc3c2nc(C)n3-c2ccnc3c(C(F)F)cccc23)[nH]1` [Example 92, 4-[3-[8-(difluoromethyl)quinolin-4-yl]-2-methyl-7-(5-methyl-4H-1,2,4-triazol-3-yl)benzimidazol-5-yl]morpholine], the pIC50 is 7.34. This pIC50 is 0.48 log units lower than that of the compound before.

For `Cc1nc2c(-c3ccncc3)cc(N3CCOCC3)cc2n1-c1ccnc2c(Cl)cccc12` [Example 319, 4-[3-(8-chloroquinolin-4-yl)-2-methyl-7-pyridin-4-ylbenzimidazol-5-yl]morpholine], the pIC50 was 5.07.

As to `Cc1nc2c(-c3ccccc3)cc(N3CCOCC3)cc2n1-c1ccnc2c(-c3ccccc3)cccc12` [Example 312, 4-(2-methyl-4-phenyl-1-(8-phenylquinolin-4-yl)-1H-benzo[d]imidazol-6-yl)morpholine], the pIC50 was 6.01.

For the compound `CCc1nc2c(-c3ncco3)cc(N3CCOCC3)cc2n1-c1ccnc2c(F)ccc(F)c12` [Example 217, 4-[3-(5,8-difluoroquinolin-4-yl)-2-ethyl-7-(1,3-oxazol-2-yl)benzimidazol-5-yl]morpholine], the pIC50 was 8.05.

With `Fc1ccc(F)c2c(-n3c(C4CC4)nc4c(-c5cnc(Cl)[nH]5)cc(N5CCOCC5)cc43)ccnc12` [Example 286, 4-[7-(2-chloro-1H-imidazol-5-yl)-2-cyclopropyl-3-(5,8-difluoroquinolin-4-yl)benzimidazol-5-yl]morpholine], the pIC50 was 7.85. Compared with the last compound, the pIC50 is 0.20 log units lower.

The compound `Cc1nc2c(-c3n[nH]c(=S)o3)cc(N3CCOCC3)cc2n1-c1ccnc2cc(F)ccc12` [Example 164, 5-(1-(7-fluoroquinolin-4-yl)-2-methyl-6-morpholino-1H-benzo[d]imidazol-4-yl)-1,3,4-oxadiazole-2(3H)-thione] had a pIC50 of 6.89.

On to `Cc1nc2c(-c3nnc(Cl)[nH]3)cc(N3CCOCC3)cc2n1-c1ccnc2c(Cl)c(F)ccc12` [Example 171, 4-(4-(5-chloro-4H-1,2,4-triazol-3-yl)-1-(8-chloro-7-fluoroquinolin-4-yl)-2-methyl-1H-benzo[d]imidazol-6-yl)morpholine], for which the pIC50 is 7.00.

`Fc1ccc(F)c2c(-n3cnc4c(-c5ncco5)cc(N5CCOCC5)cc43)ccnc12` [Example 236, 4-[3-(5,8-difluoroquinolin-4-yl)-7-(1,3-oxazol-2-yl)benzimidazol-5-yl]morpholine] gave a pIC50 of 8.30.

Take `CCc1nc2ccccc2c(-n2cnc3c(-c4nnc[nH]4)cc(N4CCOCC4)cc32)c1C` [Example 72, 4-[3-(2-ethyl-3-methylquinolin-4-yl)-7-(4H-1,2,4-triazol-3-yl)benzimidazol-5-yl]morpholine]: the pIC50 is 7.60.

In the case of `Cc1nc2c(-c3nnc[nH]3)cc(N3CCOCC3)cc2n1-c1cc(-c2nnc[nH]2)nc2ccccc12` [Example 57, 4-[2-methyl-7-(4H-1,2,4-triazol-3-yl)-3-[2-(4H-1,2,4-triazol-3-yl)quinolin-4-yl]benzimidazol-5-yl]morpholine], the negative logarithm of the IC50 (pIC50) was 7.26.

Turning to `COCCc1nc2c(-c3nnc[nH]3)cc(N3CCOCC3)cc2n1-c1ccnc2c(F)cccc12` [Example 42, 4-(1-(8-fluoroquinolin-4-yl)-2-(2-methoxyethyl)-4-(4H-1,2,4-triazol-3-yl)-1H-benzo[d]imidazol-6-yl)morpholine], the pIC50 is 7.70.

With `Cc1nc2c(-c3ccncc3)cc(N3CCOCC3)cc2n1-c1ccnc2c(-c3ccncc3)cccc12` [Example 320, 4-[2-methyl-7-pyridin-4-yl-3-(8-pyridin-4-ylquinolin-4-yl)benzimidazol-5-yl]morpholine], the pIC50 was < 5.00.

For the compound `CCc1nc2c(-c3nnc(Cl)[nH]3)cc(N3CCOCC3)cc2n1-c1ccnc2c(Cl)c(F)ccc12` [Example 172, 4-(4-(5-chloro-4H-1,2,4-triazol-3-yl)-1-(8-chloro-7-fluoroquinolin-4-yl)-2-ethyl-1H-benzo[d]imidazol-6-yl)morpholine], the negative-log IC50 (pIC50) was 7.00.

In the case of `Cc1nnc(-c2cc(N3CCOCC3)cc3c2nc(C2CCC2)n3-c2ccnc3c(Cl)cccc23)[nH]1` [Example 13, 4-(1-(8-chloroquinolin-4-yl)-2-cyclobutyl-4-(5-methyl-4H-1,2,4-triazol-3-yl)-1H-benzo[d]imidazol-6-yl)morpholine], the pIC50 was 7.35. This pIC50 lies 0.35 log units higher than the previous one.

In the case of `Cc1nc2c(-c3cncs3)cc(N3CCOCC3)cc2n1-c1ccnc2c(Cl)cccc12` [Example 276, 4-[3-(8-chloroquinolin-4-yl)-2-methyl-7-(1,3-thiazol-5-yl)benzimidazol-5-yl]morpholine], the negative-log IC50 (pIC50) is 6.38.

The compound `Fc1ccc(F)c2c(-n3c(CC4CC4)nc4c(-c5ncco5)cc(N5CCOCC5)cc43)ccnc12` [Example 221, 4-[2-(cyclopropylmethyl)-3-(5,8-difluoroquinolin-4-yl)-7-(1,3-oxazol-2-yl)benzimidazol-5-yl]morpholine] gave a pIC50 of 7.96. This pIC50 is 1.58 log units higher than that of the compound before.

Compound `Cc1nc2c(-c3ncco3)cc(N3CCOCC3)cc2n1-c1ccnc2c(F)cccc12` (atropisomer, axis not shown) [Example 341, 4-[3-(8-fluoroquinolin-4-yl)-2-methyl-7-(1,3-oxazol-2-yl)benzimidazol-5-yl]morpholine] had a pIC50 of 8.22.

As to `Fc1ccc(F)c2c(-n3c(C4CC4)nc4c(-c5cnc(Cl)[nH]5)cc(N5CCOCC5)cc43)ccnc12` (atropisomer, axis not shown) [Compound 343, 4-[7-(2-chloro-1H-imidazol-5-yl)-2-cyclopropyl-3-(5,8-difluoroquinolin-4-yl)benzimidazol-5-yl]morpholine], the negative-log IC50 (pIC50) is 8.30.

Take `Cc1cnc2c(C#N)cccc2c1-n1c(C)nc2c(-c3nnc[nH]3)cc(N3CCOCC3)cc21` (atropisomer, axis not shown) [Compound 374, 3-methyl-4-(2-methyl-6-morpholino-4-(4H-1,2,4-triazol-3-yl)-1H-benzo[d]imidazol-1-yl)quinoline-8-carbonitrile]: the pIC50 was 7.66.

In turn, `Cc1cccc2nccc(-n3cnc4c(-c5nnc[nH]5)cc(N5CCOCC5)cc43)c12` [Example 127, 4-[3-(5-methylquinolin-4-yl)-7-(4H-1,2,4-triazol-3-yl)benzimidazol-5-yl]morpholine] showed a pIC50 of 7.64.

For `Clc1cccc2c(-n3c(-c4ccccn4)nc4c(-c5nnc[nH]5)cc(N5CCOCC5)cc43)ccnc12` [Example 115, 4-[3-(8-chloroquinolin-4-yl)-2-pyridin-2-yl-7-(4H-1,2,4-triazol-3-yl)benzimidazol-5-yl]morpholine], the pIC50 was 7.85. Against the preceding compound, the pIC50 is 0.21 log units higher.

`Cc1nc2c(-c3nccs3)cc(N3CCOCC3)cc2n1-c1ccnc2c(Cl)ccc(F)c12` [Example 240, 4-[3-(8-chloro-5-fluoroquinolin-4-yl)-2-methyl-7-(1,3-thiazol-2-yl)benzimidazol-5-yl]morpholine] had a negative-log IC50 (pIC50) of 8.70.

With `Cc1cc(-n2c(C)nc3c(-c4nnc[nH]4)cc(N4CCOCC4)cc32)c2ccc(F)cc2n1` [Example 63, 4-[3-(7-fluoro-2-methylquinolin-4-yl)-2-methyl-7-(4H-1,2,4-triazol-3-yl)benzimidazol-5-yl]morpholine], the negative-log IC50 (pIC50) is 7.55.

Regarding `Fc1ccc(Cl)c2c(-n3cnc4c(-c5nnc[nH]5)cc(N5CCOCC5)cc43)ccnc12` [Example 96, 4-[3-(5-chloro-8-fluoroquinolin-4-yl)-7-(4H-1,2,4-triazol-3-yl)benzimidazol-5-yl]morpholine], the negative logarithm of the IC50 (pIC50) was 7.62.

`Cc1nnc(-c2cc(N3CCOCC3)cc3c2ncn3-c2cc(-c3cn[nH]c3)nc3ccccc23)[nH]1` [Example 380, 4-(1-(2-(1H-pyrazol-4-yl)quinolin-4-yl)-4-(5-methyl-4H-1,2,4-triazol-3-yl)-1H-benzo[d]imidazol-6-yl)morpholine] had a pIC50 of 6.62.

Consider `Cc1nc2c(-c3nnc[nH]3)cc(N3CCOCC3)cc2n1-c1ccnc2c(Cl)cccc12` (atropisomer, axis not shown) [Compound 361, 4-[3-(8-chloroquinolin-4-yl)-2-methyl-7-(4H-1,2,4-triazol-3-yl)benzimidazol-5-yl]morpholine], for which the pIC50 was 8.70.

Compound `Cc1nc2c(-c3nnc[nH]3)cc(N3CCOCC3)cc2n1-c1cc(-c2cscn2)nc2ccccc12` [Example 103, 4-(2-methyl-1-(2-(thiazol-4-yl)quinolin-4-yl)-4-(4H-1,2,4-triazol-3-yl)-1H-benzo[d]imidazol-6-yl)morpholine] showed a pIC50 of 8.05.

`CCCc1nc2c(-c3nccs3)cc(N3CCOCC3)cc2n1-c1ccnc2c(F)ccc(F)c12` [Example 239, 4-[3-(5,8-difluoroquinolin-4-yl)-2-propyl-7-(1,3-thiazol-2-yl)benzimidazol-5-yl]morpholine] had a pIC50 of 7.92.

`Cc1cnc2c(C#N)cccc2c1-n1c(C)nc2c(-c3nnc[nH]3)cc(N3CCOCC3)cc21` (atropisomer, axis not shown) [Compound 375, 3-methyl-4-(2-methyl-6-morpholino-4-(4H-1,2,4-triazol-3-yl)-1H-benzo[d]imidazol-1-yl)quinoline-8-carbonitrile] had a pIC50 of 5.15. Against the preceding compound, the pIC50 is 2.77 log units lower.

The compound `CCCc1nc2c(-c3nc(C)cs3)cc(N3CCOCC3)cc2n1-c1ccnc2c(F)ccc(F)c12` [Example 235, 4-[3-(5,8-difluoroquinolin-4-yl)-7-(4-methyl-1,3-thiazol-2-yl)-2-propylbenzimidazol-5-yl]morpholine] showed a pIC50 of 7.77.

`c1ccc(-c2nc3c(-c4nnc[nH]4)cc(N4CCOCC4)cc3n2-c2ccnc3ccccc23)nc1` [Example 6, 4-(2-(pyridin-2-yl)-1-(quinolin-4-yl)-4-(4H-1,2,4-triazol-3-yl)-1H-benzo[d]imidazol-6-yl)morpholine] had a pIC50 of 7.51. This pIC50 lies 0.26 log units lower than the previous one.
